Peptide text beside a SMILES is read from it.
Target: T1, human sweet taste receptor TAS1R2/TAS1R3 (Homo sapiens, UniProt Q7RTX0+Q8TE23)
T1 construct: expressed in transfected cells; host or cells: HEK293 Flp-In T-Rex cells; Gα15Gi3 and TAS1R2 constitutive, TAS1R3 tetracycline-inducible
T1 sequence (Q8TE23 20-839): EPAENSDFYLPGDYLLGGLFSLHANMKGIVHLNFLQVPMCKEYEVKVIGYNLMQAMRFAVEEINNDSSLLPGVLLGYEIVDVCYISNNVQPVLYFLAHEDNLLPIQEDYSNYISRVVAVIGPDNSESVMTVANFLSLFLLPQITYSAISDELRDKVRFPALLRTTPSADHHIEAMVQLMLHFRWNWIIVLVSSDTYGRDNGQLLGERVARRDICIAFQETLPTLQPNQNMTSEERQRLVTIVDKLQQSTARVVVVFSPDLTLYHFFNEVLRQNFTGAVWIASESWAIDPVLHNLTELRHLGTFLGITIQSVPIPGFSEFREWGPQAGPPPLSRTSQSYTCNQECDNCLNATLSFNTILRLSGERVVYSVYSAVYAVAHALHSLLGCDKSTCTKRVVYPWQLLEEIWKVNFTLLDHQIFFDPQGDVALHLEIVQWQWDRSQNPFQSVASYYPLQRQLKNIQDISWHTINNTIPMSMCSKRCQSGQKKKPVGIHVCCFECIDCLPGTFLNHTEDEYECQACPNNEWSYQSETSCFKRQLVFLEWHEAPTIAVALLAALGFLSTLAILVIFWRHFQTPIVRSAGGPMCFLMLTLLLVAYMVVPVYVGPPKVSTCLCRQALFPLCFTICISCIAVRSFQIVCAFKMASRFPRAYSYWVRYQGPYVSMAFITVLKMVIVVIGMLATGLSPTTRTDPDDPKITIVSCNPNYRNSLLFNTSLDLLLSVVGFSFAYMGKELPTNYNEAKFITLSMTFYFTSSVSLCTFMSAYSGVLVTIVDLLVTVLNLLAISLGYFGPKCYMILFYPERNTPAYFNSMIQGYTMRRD
T1 sequence (Q7RTX0 21-852): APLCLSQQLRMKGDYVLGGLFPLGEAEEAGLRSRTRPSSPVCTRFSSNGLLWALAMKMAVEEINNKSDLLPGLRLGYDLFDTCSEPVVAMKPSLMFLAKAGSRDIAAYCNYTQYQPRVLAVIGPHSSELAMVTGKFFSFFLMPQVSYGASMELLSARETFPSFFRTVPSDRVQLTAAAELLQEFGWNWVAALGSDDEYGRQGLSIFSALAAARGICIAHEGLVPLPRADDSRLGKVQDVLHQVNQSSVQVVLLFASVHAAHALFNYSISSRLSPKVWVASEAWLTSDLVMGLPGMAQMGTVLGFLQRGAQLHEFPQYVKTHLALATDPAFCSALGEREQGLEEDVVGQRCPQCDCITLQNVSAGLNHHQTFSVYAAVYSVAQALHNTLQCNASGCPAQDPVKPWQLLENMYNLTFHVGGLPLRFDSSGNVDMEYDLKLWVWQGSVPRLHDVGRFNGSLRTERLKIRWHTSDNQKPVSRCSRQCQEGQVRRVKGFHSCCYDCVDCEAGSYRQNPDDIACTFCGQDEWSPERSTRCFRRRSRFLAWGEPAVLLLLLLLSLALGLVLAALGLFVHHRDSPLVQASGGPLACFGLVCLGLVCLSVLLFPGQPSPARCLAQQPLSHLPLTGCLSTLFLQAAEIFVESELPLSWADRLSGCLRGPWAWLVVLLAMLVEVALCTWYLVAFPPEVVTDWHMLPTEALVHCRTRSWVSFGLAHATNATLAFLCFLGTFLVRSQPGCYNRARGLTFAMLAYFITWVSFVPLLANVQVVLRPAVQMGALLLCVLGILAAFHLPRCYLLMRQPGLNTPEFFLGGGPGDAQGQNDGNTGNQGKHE
Experiment: Calcium mobilization assay in HEK293 Flp-In T-Rex-Gα15Gi3-TAS1R2/TAS1R3 cells (FLIPR, Fluo-4)
Format: cell-based
Details: for mode of inhibition by lactisole (shift of dose-response curve), cell experiments: combination with 10, 30, 100 μM lactisole; for time until reaching peak activity after agonist application / time where signal decreased below 50 % of the maximum signal amplitude, after agonist application: counted from agonist application at 20 sec; for time until reaching peak activity after agonist application / time where signal decreased below 50 % of the maximum signal amplitude, after agonist application / time until reaching the peak amplitude / time where signal decreased below 50 % of the maximum signal amplitude / time of signal decay back to baseline / time signal stayed above initial baseline: 1 mM Ace K, 3 mM aspartame, 10 mM cyclamate, 0.3 mM NHDC; for time until reaching the peak amplitude: including 20 sec of baseline monitoring prior to agonist application; for time where signal decreased below 50 % of the maximum signal amplitude: including 20 sec of baseline monitoring; for time of signal decay back to baseline / time signal stayed above initial baseline: raw fluorescence traces; for EC50: w/o lactisole, agonist concentrations on x-axis in mM, 3 independent experiments in duplicates, read-out: EC50 of TAS1R2/TAS1R3 activation (ΔF/F)
Experimental: For the functional characterization of the human sweet taste receptor, we used HEK293 Flp-In T-Rex cells stably transfected with the G protein chimera Gα15Gi3, and the two subunits of the human sweet taste receptor, TAS1R2 and TAS1R3 ([Galindo-Cuspinera et al., 2006]). The G protein chimera and TAS1R2 subunit are constitutively expressed, whereas the expression of the TAS1R3 subunit is inducible through addition of 0.5 µg/mL tetracycline. The experiments were done exactly as before ([Behrens et al., 2017], [Ben Abu et al., 2021]). Briefly, cells were seeded into 96-well plates (black, flat clear bottom) treated with 10 µg/mL poly-D-lysine and grown in low-glucose DMEM supplemented with 10 % fetal bovine serum, 100 U Penicillin/mL, 0.1 mg/mL Streptomycin, 2 mM L-glutamine, at 37 °C, 5 % CO2, saturated air-humidity overnight. About 24 h before the experiment tetracycline was added to induce TAS1R3 expression. Next, cells were loaded for 1 h with Fluo-4 am in the presence of 2.5 mM probenecid and washed twice with C1-buffer (130 mM NaCl, 5 mM KCl, 10 mM HEPES, 1 mM sodium pyruvate, and 2 mM CaCl2, pH 7.4). Then, plates were placed in a fluorometric imaging plate reader (FLIPR^tetra, Molecular Devices, San Jose, CA, United States) for automated compound application and measurement of fluorescence changes. Fluorescence changes of control wells not induced with tetracycline were subtracted from the data. Next, measurements were corrected for background fluorescence. Dose-response relationships of three independent experiments each performed in duplicates were calculated with SigmaPlot 14.0 software using the function f(x) = min+(max − min)/(1+(x/EC50)^nH).
TI-ratings were recorded and analyzed using the software EyeQuestion® 4.11.74 (Logic8 BV, NL) online and MS Excel 16.0 (Microsoft Corporation, USA). The statistical analysis and graphical representation were performed with GraphPad Prism 9.0 for sensory results and with SigmaPlot 14.0 for cell experiments. To evaluate the sensory dose–response effects of ascending sweetener concentration w/o lactisole, an asymmetrical five-parameter curve (Richard́s five-parameter dose–response curve) was fitted. The data are presented as means ± SEM from at least 16 single evaluations. Statistical significance between the different test compounds and concentration-dependent effects was assessed by two-way ANOVAs with Tukey post hoc test using Graph Pad Prism. The normal distribution of the data sets was checked by evaluation of the kurtosis (between −7 to + 7) and the skewness (between −3 to + 3). Equal variance was tested using Levenés test. In case the assumptions of a normal distribution and equal variance were not met, the non-parametric ANOVA on ranks (Kruskal-Wallis Test) with Dunn's post-hoc test without the calculation of interaction was applied. A Pearson product moment correlation was conducted to investigate relationships between sensory results and cell responses of the tested sweeteners.

mode of inhibition by lactisole (shift of dose-response curve), cell experiments	time until reaching peak activity after agonist application [s]	time where signal decreased below 50 % of the maximum signal amplitude, after agonist application [s]	time until reaching the peak amplitude [s]	time where signal decreased below 50 % of the maximum signal amplitude [s]	time of signal decay back to baseline / time signal stayed above initial baseline	EC50 [mM]	Structure (SMILES)
competitive inhibition	27	87	47	107	≥ 6 min	0.05 ± 0.01	COc1ccc(CCC(=O)c2c(O)cc(O[C@@H]3O[C@H](CO)[C@@H](O)[C@H](O)[C@H]3O[C@@H]3O[C@@H](C)[C@H](O)[C@@H](O)[C@H]3O)cc2O)cc1O [NHDC, neohesperidin dihydrochalcone]
Allosteric inhibition	27	65	47	85	about 3 min	0.36 ± 0.04	CC1=CC(=O)NS(=O)(=O)O1 [acesulfame K]
Allosteric inhibition	23	73	43	93	≥ 6 min	0.33 ± 0.02	COC(=O)[C@H](Cc1ccccc1)NC(=O)[C@@H](N)CC(=O)O [aspartame] (H-Asp-Phe-OMe)
competitive inhibition	19	73	39	93	≥ 6 min	1.51 ± 0.11	O=S(=O)(O)NC1CCCCC1 [cyclamate]

Source: publication PMC9532755, “Impact of lactisole on the time-intensity profile of selected sweeteners in dependence of the binding site” (Food Chemistry: X, 2022)
